According to article PMC8910432 (International Journal of Molecular Sciences, 2022):
Like-named read-outs stand apart in the source and are kept apart here.

Key:
[1] = biological target: T1, 3CLpro (Severe acute respiratory syndrome coronavirus 2, UniProt P0DTD1); conditions: cited from earlier work; for IC50: read-out: IC50 3CLpro
[2] = parameters: method as in PMID 12111394, PMID 16526653; conditions: ref 38, 39; cited from earlier work
[3] = biological target: T1, 3CLpro; conditions: FRET-based assay; cited from earlier work
[4] = biological target: SARS-CoV-2 3CLpro (Severe acute respiratory syndrome coronavirus 2, UniProt P0DTD1); experiment: biochemical; assay type: biochemical; conditions: for concentration from which inhibitory effect on 3CLpro activity is significant: tested 0.1 to 100 µM
[5] = biological target: T1, 3CLpro; assay type: binding; conditions: TA 10 to 500 µM, 30 min
[6] = biological target: T1, 3CLpro; experiment: biochemical; conditions: SPR, 1:1 binding model; read-out: KD TA/3CLpro
[7] = biological target: T1, 3CLpro; conditions: cited from earlier work; for binding free energy of 3CLpro: ref 66
[8] = system: mice; conditions: even at high dosages; cited from earlier work

In the case of `O=C(O[C@H]1Cc2c(O)cc(O)cc2OC1c1cc(O)c(O)c2c(=O)c(O)cc(C3Oc4cc(O)cc(O)c4C[C@H]3O)cc12)c1cc(O)c(O)c(O)c1` (stereo partly drawn) [3-isotheaflavin-3-gallate, reference compound], the IC50 [1] is listed as 7 µM.

For `O=C(OC[C@H]1OC(OC(=O)c2cc(O)c(O)c(OC(=O)c3cc(O)c(O)c(O)c3)c2)[C@H](OC(=O)c2cc(O)c(O)c(OC(=O)c3cc(O)c(O)c(O)c3)c2)[C@@H](OC(=O)c2cc(O)c(O)c(OC(=O)c3cc(O)c(O)c(O)c3)c2)[C@@H]1OC(=O)c1cc(O)c(O)c(OC(=O)c2cc(O)c(O)c(O)c2)c1)c1cc(O)c(O)c(OC(=O)c2cc(O)c(O)c(O)c2)c1` (stereo partly drawn) [TA, 1,2,3,4,6-penta-O-{3,4-dihydroxy-5-((3,4,5-trihydroxybenzoyl)oxy)benzoyl}-D-glucopyranose], the IC50 ([1]; lower end of literature range) is listed as 2.1 µM, the IC50 [1] is listed as 3 µM and the “inhibition of 3CLpro activity” value ([1]; ref 35, 36, 37) is listed as 100%. The IC50 ([1]; upper end of literature range) was 9 µM, the solubility in water [2] was “highly soluble” and the IC50 [3] was 13.4 µM. The “reduction of 3CLpro activity” value ([4]; at 10 µM) was “up to 95%”, the IC50 ([4]; this study) was 1 µM and the “TA adsorption onto 3CLpro (QCMD)” value [5] was “TA adsorption is observed to increase with higher TA concentrations”. It also gave a Kd [6] of 0.0575 µM.

For `O=C(OC[C@H]1O[C@@H](OC(=O)c2cc(O)c(O)c(O)c2)[C@H](O)[C@@H](OC(=O)c2cc(O)c(O)c(O)c2)[C@@H]1O)c1cc(O)c(O)c(O)c1` [TGG, 1,3,6-tri-O-galloyl-β-D-glucose], the “concentration from which inhibitory effect on 3CLpro activity is significant” value [4] was no less than 50 µM.

In the case of `COc1ccc(-c2cc(=O)c3c(O)cc(O[C@@H]4O[C@H](CO[C@@H]5O[C@@H](C)[C@H](O)[C@@H](O)[C@H]5O)[C@@H](O)[C@H](O)[C@H]4O)cc3o2)cc1` [acaciin], the “free energy of the 3CLpro complex” value ([7]; ref 67) is listed as -27.61 kcal/mol.

For `O=c1cc(-c2ccc(O)c(-c3c(O)cc(O)c4c(=O)cc(-c5ccc(O)cc5)oc34)c2)oc2cc(O)cc(O)c12` [amentoflavone], the “binding free energy of 3CLpro” value [7] is given as -32.14 ± 4.73 kcal/mol.

In the case of `O=C(O[C@@H]1O[C@@H]2COC(=O)c3cc(O)c(O)c(O)c3-c3c(cc(O)c(O)c3O)C(=O)O[C@H]([C@H]1O)[C@@H]2O)c1cc(O)c(O)c(O)c1` [corilagin, β-1-O-galloyl-3,6-(R)-hexahydroxydiphenoyl-D-glucose], the “inhibition of 3CLpro activity” value ([1]; ref 33) is given as 88%, the “concentration from which inhibitory effect on 3CLpro activity is significant” value [4] is given as no less than 50 µM and the toxicity in mice [8] is given as “very low toxicity”.

For `CCC(CC)COC(=O)[C@H](C)N[P@](=O)(OC[C@H]1O[C@@](C#N)(c2ccc3c(N)ncnn23)[C@H](O)[C@@H]1O)Oc1ccccc1` [remdesivir], the “binding free energy of 3CLpro” value [7] is given as -26.67 ± 3.39 kcal/mol.

In the case of `C[C@@H]1O[C@@H](OC[C@H]2O[C@@H](Oc3c(-c4ccc(O)c(O)c4)oc4cc(O)cc(O)c4c3=O)[C@H](O)[C@@H](O)[C@@H]2O)[C@H](O)[C@H](O)[C@H]1O` [rutin], the “binding free energy of 3CLpro” value [7] is given as -30.96 ± 5.56 kcal/mol.

For (−)-epicatechin-3-O-gallate [ECG], the IC50 [1] is listed as 0.847 ± 0.005 µM, the “MMPBSA binding free energy with 3CLpro” value ([7]; ref 33) is listed as -41.5 ± 5.1 kcal/mol and the “MMPBSA binding free energy with 3CLpro” value ([7]; ref 68) is listed as -46.03 ± 6.48 kcal/mol.

In the case of cyanidin-3-O-glucoside, the “MMPBSA binding free energy with 3CLpro” value ([7]; protomer A) is listed as -50.8 kcal/mol and the “MMPBSA binding free energy with 3CLpro” value ([7]; protomer B) is listed as -42.1 kcal/mol.
